This note sets out measurements from patent US20240189440A1, “TLR7 AND TLR8 AGONISTS FOR THE TREATMENT OF CANCER AND/OR INFECTIOUS DISEASES” (priority 2021, published 2024).

Assay [1] has as its system NFκB induction (SEAP) in Ramos-blue cells. Kind of assay: NFkB activation in Ramos-Blue cells for additional TLR7 agonists (Example 31). The following applies: for EC (2-fold SEAP signal): lowest concentration that doubles the SEAP background (nontreated) signal, read-out: Lowest concentration to induce 2x SEAP; for Fold increase in SEAP signal at lowest active concentration: versus nontreated background. It is filed as cell-based. The protocol:
A 3× serial dilution was performed in 10% DMSO in PBS for each payload to have a final range of concentration from 1000 uM to 76 nM. Ramos-blue cells (InvivoGen, cat #rms-sp) were cultured using high glucose DMEM media supplied with 10% fetal bovine serum according to the manufacturer guidelines. The media was supplemented with 50 U/mL penicillin, 50 ug/mL streptomycin, and 100 ug/mL normocin to prevent bacterial contamination. The cell density and viability were calculated using a Countess Cell Counter and the proper volume of cells was removed in order to have a seeding density of 0.2×10^6 cells/mL per well. 135 uL of the cell suspension was added to each well in a 96-well plate along with 15 uL of the corresponding payload treatment. Each assay point was run in triplicate and the plate was incubated at 37° C. with 5% CO2 for 24 or 72 hours. In order to assess the NFκB induction, the QUANTI-Blue™ solution was prepared by adding 200 uL of QB reagent (InVivogen cat #rep-qbs) and 200 uL of QB buffer to 19.6 mL of water. The resulting solution was vortexed and incubated at room temperature for ten minutes. The 96-well plate was centrifuged at 1990 rpm for ten minutes and 40 uL of the cell supernatant was added to 160 uL of the prepared QUANTI-Blue™ solution. The QB reaction plate was incubated at 37° C. for 24 hours. The plate was read using the Molecular Devices i3x plate reader at a wavelength of 630 nm to determine the amount of SEAP production. The table below illustrates the lowest concentration of each compound that results in a doubling of the SEAP background (nontreated) signal. As illustrated, compounds of the invention ranged from low nM to low micromolar.

Assay [2] deals with NFκB pathway in Ramos-blue cells. The experiment in a line: Ramos-Blue NFκB/SEAP reporter assay with cysteine-capped linker-payloads, 72 h (Example 15). The following applies: cysteine-capped, 72 hours, SEAP at 630 nm, read-out: Relative Activation; for activation at 5 µM: Linker-Payload Dose 5 uM; for activation at 50 µM: Linker-Payload Dose 50 uM. The format is cell-based. The protocol: A 50 mM cysteine stock was prepared in 0.1 M PBS pH 7.4. 10 equivalents of 50 mM cysteine were added to 1 equivalent of linker-payload to create a 2.50 mM solution. The reaction was vortexed and sat at room temperature for an hour to allow for the Michael addition to occur. After an hour, an aliquot was taken and run via UPLC-MS to ensure for the complete Michael reaction. The reaction was diluted to 1 mM using 0.1M PBS pH 7.4. The 1 mM solution was diluted to 500 uM and 50 uM in a 96-well plate to afford a final concentration of 50 uM and 5 uM in the cell suspension. The cell density and viability were calculated using the Countess Cell Counter and the proper volume of cells was removed in order to have a seeding density of 0.2×10^6 cells/mL per well. 135 uL of cell suspension was added to each well in a 96-well plate along with 15 uL of the corresponding linker-payload treatment. Each concentration was run in triplicate and incubated at 37° C. with 5% CO2 for 72 hours.
Invivogen's QUANTI-Blue™ solution was prepared by adding 200 uL of QB reagent and 200 uL of QB buffer to 19.6 mL of water. The resulting solution was vortexed and incubated at room temperature for ten minutes. The 96-well plate was centrifuged at 1990 rpm for ten minutes. Then, 40 uL of cell supernatant was added to 160 uL of the prepared QUANTI-Blue™ solution and incubated at 37° C. for 24 hours. The plate was read using the Molecular Devices i3x plate reader at a wavelength of 630 nm to determine the amount of SEAP production.

For the compound `CCCCc1nc2c(N)nc3ccccc3c2n1Cc1cccc(O)c1` [21f, 3-((4-amino-2-butyl-1H-imidazo[4,5-c]quinolin-1-yl)methyl)phenol], in assay [1], the EC (2-fold SEAP signal) was found to be 0.21 µM and the “Fold increase in SEAP signal at lowest active concentration” value (“Fold increase in SEAP signal” for short) was 2.902.

In the case of `CCOCc1nc2c(NC(=O)OCc3ccc(NC(=O)C(CCCNC(N)=O)NC(=O)C(NC(=O)CCCCCN4C(=O)C=CC4=O)C(C)C)cc3)nc3ccccc3c2n1CC(C)(C)O` (centres unmarked) [Mc_ValCitPABC_Resiquimod, 4-(2-(2-(6-(2,5-Dioxo-2,5-dihydro-1H-pyrrol-1-yl)hexanamido)-3-methylbutanamido)-5-ureidopentanamido)benzyl 2-(ethoxymethyl)-1-(2-hydroxy-2-methylpropyl)-1H-imidazo[4,5-c]quinolin-4-ylcarbamate], in assay [2], the activation at 5 µM came out at 18.6% and the activation at 50 µM is -20.8%.

With `CCCCc1nc2c(N)nc3ccccc3c2n1Cc1cccc(N)c1` [23f, 1-(3-aminobenzyl)-2-butyl-1H-imidazo[4,5-c]quinoline-4-amine], in assay [1], the EC (2-fold SEAP signal) turned out to be 0.023 µM and the “Fold increase in SEAP signal” value is listed as 1.946.

For `CCCCc1nc2c(N)nc3ccccc3c2n1Cc1cccc(NC(=O)OC(C)(C)C)c1` [23e, Tert-butyl (3-((4-amino-2-butyl-1H-imidazo[4,5-c]quinoline-1-yl)methyl)phenyl)carbamate], in assay [1], the EC (2-fold SEAP signal) was determined as 1.87 µM and the “Fold increase in SEAP signal” value turned out to be 4.344.

In the case of `CCCCc1nc2c(N)nc3ccccc3c2n1Cc1ccc(NC(=O)CN)cc1` [20f, 2-amino-N-(4-((4-amino-2-butyl-1H-imidazo[4,5-c]quinolin-1-yl)methyl)phenyl)acetamide], in assay [1], the EC (2-fold SEAP signal) was 0.069 µM and the “Fold increase in SEAP signal” value came out at 2.225.

Take “(3-((4-((4-amino-2-butyl-1H-imidazo[4,5-c]quinolin-1-yl)methyl)phenyl)amino)-3-oxopropyl)carbamate [20b]”: in assay [1], the EC (2-fold SEAP signal) is 0.0076 µM and the “Fold increase in SEAP signal” value is 4.416.

As for `CCCCc1nc2c(N)nc3ccccc3c2n1Cc1ccc(NC(=O)CCCCCNC(=O)OC(C)(C)C)cc1` [20e, tert-butyl(6-((4-((4-amino-2-butyl-1H-imidazo[4,5-c]quinolin-1-yl)methyl)phenyl)amino)-6-oxohexyl)carbamate], in assay [1], the EC (2-fold SEAP signal) was found to be 0.069 µM and the “Fold increase in SEAP signal” value came to 2.983.

In the case of `CCCCc1nc2c(N)nc3ccccc3c2n1Cc1cccc(OC)c1` [21e, 2-butyl-1-(3-methoxybenzyl)-1H-imidazo[4,5-c]quinoline-4-amine], in assay [1], the EC (2-fold SEAP signal) worked out at 0.62 µM and the “Fold increase in SEAP signal” value worked out at 5.753.

On to `CCCCc1nc2c(N)nc3ccccc3c2n1Cc1ccc(NC(=O)CCCCCN)cc1` [20j, 6-amino-N-(4-((4-amino-2-butyl-1H-imidazo[4,5-c]quinolin-1-yl)methyl)phenyl)hexanamide], for which, in assay [1], the EC (2-fold SEAP signal) amounted to 0.21 µM and the “Fold increase in SEAP signal” value came to 2.802.

For `CCCCc1nc2c(N)nc3ccccc3c2n1Cc1ccc(NC(=O)OCc2ccc(NC(=O)C(CCCNC(N)=O)NC(=O)C(NC(=O)CCCCCN3C(=O)C=CC3=O)C(C)C)cc2)cc1` (centres unmarked) [Mc_ValCitPABC_E104, 4-(2-(2-(6-(2,5-dioxo-2,5-dihydro-1H-pyrrol-1-yl)hexanamido)-3-methylbutanamido)-5-ureidopentanamido)benzyl 4-((4-amino-2-butyl-1H-imidazo[4,5-c]quinolin-1-yl)methyl)phenylcarbamate], in assay [2], the activation at 5 µM is 12.7% and the activation at 50 µM is -19.2%.

In the case of `CCCCc1nc2c(N)nc3ccccc3c2n1Cc1ccc(NC(=O)OCC)cc1` [20m, ethyl (4-((4-amino-2-butyl-1H-imidazo[4,5-c]quinolin-1-yl)methyl)phenyl)carbamate], in assay [1], the EC (2-fold SEAP signal) was 0.023 µM and the “Fold increase in SEAP signal” value turned out to be 3.188.

As to `CCCCc1nc2c(N)nc3ccccc3c2n1Cc1ccc(CNC(=O)CCCCCN2C(=O)C=CC2=O)cc1` [Mc_E66, N-(4-((4-amino-2-butyl-1H-imidazo[4,5-c]quinolin-1-yl)methyl)benzyl)-6-(2,5-dioxo-2,5-dihydro-1H-pyrrol-1-yl)hexanamide], in assay [2], the activation at 5 µM was determined as 119% and the activation at 50 µM is -52.3%.

For the compound `CCCCC(=O)Nc1ccc(Cn2c(CCCC)nc3c(N)nc4ccccc4c32)cc1` [20k, N-(4-((4-amino-2-butyl-1H-imidazo[4,5-c]quinolin-1-yl)methyl)phenyl)pentanamide], in assay [1], the EC (2-fold SEAP signal) worked out at 0.0076 µM and the “Fold increase in SEAP signal” value is 2.398.

Regarding `CCCCc1nc2c(N)nc3ccccc3c2n1Cc1ccc(OC)cc1` [22e, 2-butyl-1-(4-methoxybenzyl)-1H-imidazo[4,5-c]quinolin-4-amine], in assay [1], the EC (2-fold SEAP signal) was 0.21 µM and the “Fold increase in SEAP signal” value was found to be 2.537.

As for `CCCCc1nc2c(N)nc3ccccc3c2n1Cc1ccc(CNC(=O)C(CCCNC(N)=O)NC(=O)C(NC(=O)CCCCCN2C(=O)C=CC2=O)C(C)C)cc1` (centres unmarked) [Mc_ValCit_E66, N-(1-(1-(4-((4-amino-2-butyl-1H-imidazo[4,5-c]quinolin-1-yl)methyl)benzylamino)-1-oxo-5-ureidopentan-2-ylamino)-3-methyl-1-oxobutan-2-yl)-6-(2,5-dioxo-2,5-dihydro-1H-pyrrol-1-yl)hexanamide], in assay [2], the activation at 5 µM turned out to be 125% and the activation at 50 µM is -51.4%.

`CCCCc1nc2c(N)nc3ccccc3c2n1Cc1ccc(NC(=O)CCN)cc1` [20g, 3-amino-N-(4-((4-amino-2-butyl-1H-imidazo[4,5-c]quinolin-1-yl)methyl)phenyl)propanamide]: in assay [1], the EC (2-fold SEAP signal) stood at 0.62 µM and the “Fold increase in SEAP signal” value is recorded as 2.638.

In the case of `CCCCOC(=O)Cc1ccc(Cn2c(CCCC)nc3c(N)nc4ccccc4c32)cc1` [20o, Butyl 2-(4-((4-amino-2-butyl-1H-imidazo[4,5-c]quinolin-1-yl)methyl)phenyl)acetate], in assay [1], the EC (2-fold SEAP signal) was found to be 0.069 µM and the “Fold increase in SEAP signal” value is 4.158.

Regarding `CCCCc1nc2c(N)nc3ccccc3c2n1Cc1ccc(NC(C)=O)cc1` [20l, N-(4-((4-amino-2-butyl-1H-imidazo[4,5-c]quinolin-1-yl)methyl)phenyl)acetamide], in assay [1], the EC (2-fold SEAP signal) came out at 0.023 µM and the “Fold increase in SEAP signal” value came to 2.11.

Turning to `CCCCc1nc2c(N)nc3ccccc3c2n1Cc1ccc(O)cc1` [22f, 4-((4-amino-2-butyl-1H-imidazo[4,5-c]quinolin-1-yl)methyl)phenol], in assay [1], the EC (2-fold SEAP signal) turned out to be 0.069 µM and the “Fold increase in SEAP signal” value was found to be 2.269.

On to `CCCCc1nc2c(N)nc3ccccc3c2n1Cc1ccc(NC(=O)CCCNC(=O)OC(C)(C)C)cc1` [20c, tert-butyl(4-((4-((4-amino-2-butyl-1H-imidazo[4,5-c]quinolin-1-yl)methyl)phenyl)amino)-4-oxobutyl)carbamate], for which, in assay [1], the EC (2-fold SEAP signal) is 0.0076 µM and the “Fold increase in SEAP signal” value was 2.352.

Regarding `CCCCc1nc2c(N)nc3ccccc3c2n1Cc1ccc(NC(=O)OC(C)C)cc1` [20n, Isopropyl (4-((4-amino-2-butyl-1H-imidazo[4,5-c]quinolin-1-yl)methyl)phenyl)carbamate], in assay [1], the EC (2-fold SEAP signal) was found to be 0.0076 µM and the “Fold increase in SEAP signal” value is given as 1.925.

`CCCCc1nc2c(N)nc3ccccc3c2n1Cc1ccc(NC(=O)CCCCNC(=O)OC(C)(C)C)cc1` [20d, tert-butyl(5-((4-((4-amino-2-butyl-1H-imidazo[4,5-c]quinolin-1-yl)methyl)phenyl)amino)-5-oxopentyl)carbamate]: in assay [1], the EC (2-fold SEAP signal) worked out at 0.0076 µM and the “Fold increase in SEAP signal” value stood at 2.222.
